Patent US20260297080A1, “BICYCLIC COMPOUNDS AS CDK INHIBITORS” (BeOne Medicines I GmbH, priority 2022, published 2026)

Legend:
[1] = biological target: CDK2/Cyclin E1 (Homo sapiens, UniProt P24941); test: CDK2/Cyclin E1 Biochemical Assay (TR-FRET), 0.060 mM ATP; settings: 0.15 μM Rb (Ser780)-biotin substrate, pH7.0, 60 min preincubation, 120 min reaction, room temperature
Procedure, shortened: (§1)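 IC50 was from a four-parameter logistic fit of the 665/620 nm TR-FRET ratio (Eu anti-pRb Ser780 mAb, streptavidin-XL665). Compound (0-10 μM) was preincubated 60 min with enzyme, then reacted 120 min at room temperature with 0.15 μM biotinylated Rb (Ser780) peptide. ATP was 0.015 mM for CDK1/Cyclin B1 and 0.060 mM for CDK2/Cyclin E1; buffer was HEPES pH7.0.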

[2] = biological target: CDK1/Cyclin B1 (Homo sapiens, UniProt P06493); test: CDK1/Cyclin B1 Biochemical Assay (TR-FRET), 0.015 mM ATP; settings: 0.15 μM Rb (Ser780)-biotin substrate, pH7.0, 60 min preincubation, 120 min reaction, room temperature
Chain of CDK1/Cyclin B1 (P06493 whole entry): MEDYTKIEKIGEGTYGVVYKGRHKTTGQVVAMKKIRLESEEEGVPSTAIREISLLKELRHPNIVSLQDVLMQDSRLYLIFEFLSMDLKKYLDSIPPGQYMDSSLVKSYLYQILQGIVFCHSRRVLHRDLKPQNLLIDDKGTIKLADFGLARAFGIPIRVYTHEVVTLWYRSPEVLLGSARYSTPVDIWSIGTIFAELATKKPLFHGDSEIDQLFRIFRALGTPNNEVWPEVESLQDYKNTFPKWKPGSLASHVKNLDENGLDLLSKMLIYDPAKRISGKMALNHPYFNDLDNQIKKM
Chain of CDK1/Cyclin B1 (P14635 whole entry partner): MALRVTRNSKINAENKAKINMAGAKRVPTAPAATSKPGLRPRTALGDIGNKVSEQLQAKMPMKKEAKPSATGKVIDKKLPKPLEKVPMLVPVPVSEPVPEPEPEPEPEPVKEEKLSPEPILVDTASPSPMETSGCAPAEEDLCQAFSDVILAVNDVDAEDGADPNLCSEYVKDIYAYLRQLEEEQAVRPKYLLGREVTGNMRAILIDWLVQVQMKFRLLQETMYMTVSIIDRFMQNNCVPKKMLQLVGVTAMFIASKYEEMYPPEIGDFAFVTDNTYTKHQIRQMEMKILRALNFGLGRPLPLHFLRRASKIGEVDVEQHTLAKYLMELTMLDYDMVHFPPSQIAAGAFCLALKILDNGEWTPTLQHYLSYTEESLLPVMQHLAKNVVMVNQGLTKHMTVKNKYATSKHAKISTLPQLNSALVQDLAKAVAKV
Procedure, shortened: as §1

CC[C@H](C)NC(=O)O[C@H]1CC[C@@H](c2cc(Nc3ccc4c(c3F)CN(C3COC3)S4(=O)=O)n[nH]2)C1 (single isomer, unassigned) [Example 134a] gave an IC50 [1] of 3.8 nM and an IC50 [2] of 488 nM.
Compound O=C(NC1(CO)CCC1)O[C@H]1CC[C@@H](c2cc(Nc3ccc4c(c3F)CNS4(=O)=O)n[nH]2)C1 (relative stereo) [Example 385, cis-3-(3-((4-fluoro-1,1-dioxido-2,3-dihydrobenzo[d]isothiazol-5-yl)amino)-1H-pyrazol-5-yl)cyclopentyl(1-(hydroxymethyl)cyclobutyl)carbamate] has an IC50 [1] of 1.9 nM and an IC50 [2] of 138 nM.
Work on [2H]C([2H])([2H])N1Cc2c(ccc(Nc3cc([C@@H]4CC[C@H](OC(=O)N[C@@H](C)CC)C4)[nH]n3)c2F)S1(=O)=O (relative stereo) [Example 131, cis-3-(3-((4-fluoro-2-(methyl-d3)-1,1-dioxido-2,3-dihydrobenzo[d]isothiazol-5-yl)amino)-1H-pyrazol-5-yl)cyclopentyl((S)-sec-butyl)carbamate] yielded an IC50 [1] of 1.4 nM and an IC50 [2] of 152 nM.
COc1cc2c(cc1Nc1cc([C@@H]3CC[C@H](OC(=O)NC(C)C)C3)[nH]n1)S(=O)(=O)NC2 (relative stereo) [Example 182, cis-3-(3-((5-methoxy-1,1-dioxido-2,3-dihydrobenzo[d]isothiazol-6-yl)amino)-1H-pyrazol-5-yl)cyclopentyl isopropylcarbamate] was tested, and the IC50 [1] was 279 nM and the IC50 [2] was 5580 nM.
Work on CC(C)NC(=O)O[C@H]1CC[C@@H](c2cc(Nc3ccc4c(c3F)CN(C3CCOC3)S4(=O)=O)n[nH]2)C1 (relative stereo) [Example 69, cis-3-(3-((4-fluoro-1,1-dioxido-2-(tetrahydrofuran-3-yl)-2,3-dihydrobenzo[d]isothiazol-5-yl)amino)-1H-pyrazol-5-yl)cyclopentyl isopropylcarbamate] yielded an IC50 [1] of 9.5 nM and an IC50 [2] of 647 nM.
CC(C)NC(=O)O[C@H]1CC[C@@H](c2cc(Nc3ccc4c(c3)S(=O)(=O)NC4C)[nH]n2)C1 (single isomer, unassigned) [Example 5b, cis-3-(5-((3-methyl-1,1-dioxido-2,3-dihydrobenzo[d]isothiazol-6-yl)amino)-1H-pyrazol-3-yl)cyclopentyl isopropylcarbamate] gave an IC50 [1] of 1 nM and an IC50 [2] of 14 nM.
CC(C)NC(=O)O[C@H]1CC[C@@H](c2cc(Nc3ccc4c(c3)CS(=O)(=O)N4CC(C)(C)O)n[nH]2)C1 (relative stereo) [Example 216, cis-3-(3-((1-(2-hydroxy-2-methylpropyl)-2,2-dioxido-1,3-dihydrobenzo[c]isothiazol-5-yl)amino)-1H-pyrazol-5-yl)cyclopentyl isopropylcarbamate] showed an IC50 [1] of 7.8 nM and an IC50 [2] of 54 nM.
CC[C@H](C)NC(=O)O[C@H]1CC[C@@H](c2cc(Nc3ccc4c(c3F)CS(=O)(=O)N4)n[nH]2)C1 (single isomer, unassigned) [Example 383b] gave an IC50 [1] of 1.4 nM and an IC50 [2] of 15 nM.
For O=C(O[C@H]1CC[C@@H](c2cc(Nc3ccc4c(c3F)CS(=O)(=O)N4)n[nH]2)C1)N1CCOCC1 (relative stereo) [Example 415, cis-3-(3-((4-fluoro-2,2-dioxido-1,3-dihydrobenzo[c]isothiazol-5-yl)amino)-1H-pyrazol-5-yl)cyclopentyl morpholine-4-carboxylate], the IC50 [1] was 26 nM and the IC50 [2] was 700 nM.
CC(C)NC(=O)O[C@H]1CC[C@@H](c2cc(Nc3cc(F)c4c(c3)CS(=O)(=O)N4CC(F)(F)F)n[nH]2)C1 (relative stereo) [Example 281, cis-3-(3-((7-fluoro-2,2-dioxido-1-(2,2,2-trifluoroethyl)-1,3-dihydrobenzo[c]isothiazol-5-yl)amino)-1H-pyrazol-5-yl)cyclopentyl isopropylcarbamate] gave an IC50 [1] of 8.1 nM and an IC50 [2] of 131 nM.
For CC[C@H](C)NC(=O)O[C@H]1CC[C@@H](c2cc(Nc3ccc4c(c3F)CNS4(=O)=O)n[nH]2)C1 (single isomer, unassigned) [Example 139b], the IC50 [1] was 0.9 nM and the IC50 [2] was 52 nM.
